Experiments:
Assay in all cases: relative viability (nuclei count vs DMSO), 5 days (fraction); higher = more cells survive
[1] = compound: Oc1nc(-c2ccc(C(F)(F)F)cc2)nc2c1CSCC2 [XAV939]
Method in brief: (§1)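 On vehicle-anchored 1536-well plates, lung cancer cell lines held overnight at 37 °C were pinned with five library-drug doses (not always all listed) spaced by √10. With no medium change over 5 days, they were then fixed, permeabilised and Hoechst-stained in one step and imaged at 4×. MetaXpress counted nuclei, and viability is the median across plates of treated-well over vehicle-well nuclei. Acceptance needed control CV below 25% and at least one doubling.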

[2] = compound: CC1(C)CCC(c2ccc(Cl)cc2)=C(CN2CCN(c3ccc(C(=O)NS(=O)(=O)c4ccc(N[C@H](CCN5CCOCC5)CSc5ccccc5)c(S(=O)(=O)C(F)(F)F)c4)cc3)CC2)C1 [Navitoclax]
Method in brief: as §1

[3] = compound: CCCCCCCC[C@H]1[C@@H](C(=C)C(=O)O1)C(=O)O [C-75]
Method in brief: as §1

[4] = compound: O=C(O)c1ccc(-c2c[nH]c3ncc(-c4ccccc4)cc23)cc1C1CCCC1
Method in brief: as §1

[5] = compound: NC(=O)Nc1cc(-c2cccc(F)c2)sc1C(=O)N[C@H]1CCCNC1 [AZD7762]
Method in brief: as §1

| Cell Line | relative viability ([1]; 0.08 µM) | relative viability ([1]; 0.253 µM) | relative viability ([1]; 0.8 µM) | relative viability ([1]; 2.53 µM) | relative viability ([2]; 0.005 µM) | relative viability ([2]; 0.01581 µM) | relative viability ([2]; 0.05 µM) | relative viability ([2]; 0.1581 µM) | relative viability ([2]; 0.5 µM) | relative viability ([2]; 0.5 µM, anchor plate) | relative viability ([3]; 0.08 µM) | relative viability ([3]; 0.253 µM) | relative viability ([3]; 0.8 µM) | relative viability ([3]; 2.53 µM) | relative viability ([3]; 8 µM) | relative viability ([4]; 0.04 µM) | relative viability ([4]; 0.1265 µM) | relative viability ([4]; 0.4 µM) | relative viability ([4]; 1.265 µM) | relative viability ([5]; 0.01 µM) | relative viability ([5]; 0.03162 µM) | relative viability ([5]; 0.1 µM) | relative viability ([5]; 0.2 µM, anchor plate) | relative viability ([5]; 0.3162 µM) | relative viability ([5]; 1 µM) |
| --- | --- | --- | --- | --- | --- | --- | --- | --- | --- | --- | --- | --- | --- | --- | --- | --- | --- | --- | --- | --- | --- | --- | --- | --- | --- |
| PC-14 | 1.1 | 0.933 | 0.974 | 0.885 | 1 | 1.16 | 1.05 | 0.981 | 0.956 | 1.01 | 0.939 | 0.86 | 0.902 | 0.927 | 1 | 0.956 | 1.12 | 1 | 0.962 | 1.03 | 0.995 | 0.931 | 0.39 | 0.562 | 0.368 |
| RERF-LC-KJ | 0.968 | 0.862 | 0.859 | 0.743 | 0.973 | 0.98 | 0.961 | 1.01 | 0.997 | 0.987 | 1.02 | 1.14 | 0.981 | 0.95 | 1.06 | 1.02 | 0.96 | 0.985 | 0.916 | 0.976 | 1.03 | 1.06 | 1.03 | 1.04 | 0.959 |
| SK-LU-1 | 1.01 | 1.02 | 1.03 | 1.07 | 1.01 | 1.06 | 1.12 | 0.949 | 1.02 | 0.813 | 1 | 1.06 | 0.964 | 0.894 | 0.816 | 1.01 | 1.13 | 0.978 | 0.74 | 1.1 | 1.06 | 0.633 | – | 0.366 | 0.242 |
| SK-MES-1 | 1.07 | 0.906 | 0.919 | 0.858 | 1.01 | 1.17 | 1.11 | 0.95 | 1.04 | 1.25 | 1.01 | 1.02 | 0.937 | 0.93 | 0.943 | 1 | 1.05 | 0.943 | 0.755 | 1 | 1.03 | 1.05 | – | 0.818 | 0.372 |
| SW 900 | 0.954 | 0.832 | 0.928 | 0.677 | 0.841 | 1.06 | 0.667 | 0.742 | 0.925 | – | 0.786 | 1.11 | 0.719 | 0.695 | 0.867 | 0.846 | 0.915 | 0.777 | 0.741 | 0.876 | 0.957 | 1.17 | 0.68 | 0.891 | 0.475 |
| SW 1573 | 1.1 | 0.857 | 0.908 | 0.81 | 1.03 | 1.11 | 1.06 | 0.901 | 0.956 | 0.973 | 0.981 | 1.05 | 0.946 | 0.758 | 0.855 | 0.981 | 1.03 | 0.89 | 0.706 | 1.13 | 1.05 | 1.08 | – | 0.96 | 0.607 |
| UMC-11 | 0.996 | 0.777 | 0.955 | 0.868 | 0.944 | 0.966 | 0.742 | 0.903 | 0.621 | 0.324 | 0.949 | 1.1 | 0.875 | 0.721 | 0.726 | 0.978 | 1.08 | 0.934 | 0.905 | 0.997 | 0.961 | 0.979 | – | 0.822 | 0.537 |

— the supplement of paper PMC10307832
